Values of other authors, collected in patent publication US20240173315A1 (OWP Pharmaceuticals, Inc., priority 2022, published 2024).
Counter-ions that a name gives are not always drawn. Like-named read-outs stand apart in the source and are kept apart here.

Assays:
CYP3A4 = molecular target: T1, CYP3A4 (Homo sapiens, UniProt P08684); settings: in vitro
T1 construct: In vitro studies in human liver microsomes; from tissue; host or cells: human liver microsomes

[1] = oral dose
[2] = humans, oral

T1 sequence (P08684 whole entry): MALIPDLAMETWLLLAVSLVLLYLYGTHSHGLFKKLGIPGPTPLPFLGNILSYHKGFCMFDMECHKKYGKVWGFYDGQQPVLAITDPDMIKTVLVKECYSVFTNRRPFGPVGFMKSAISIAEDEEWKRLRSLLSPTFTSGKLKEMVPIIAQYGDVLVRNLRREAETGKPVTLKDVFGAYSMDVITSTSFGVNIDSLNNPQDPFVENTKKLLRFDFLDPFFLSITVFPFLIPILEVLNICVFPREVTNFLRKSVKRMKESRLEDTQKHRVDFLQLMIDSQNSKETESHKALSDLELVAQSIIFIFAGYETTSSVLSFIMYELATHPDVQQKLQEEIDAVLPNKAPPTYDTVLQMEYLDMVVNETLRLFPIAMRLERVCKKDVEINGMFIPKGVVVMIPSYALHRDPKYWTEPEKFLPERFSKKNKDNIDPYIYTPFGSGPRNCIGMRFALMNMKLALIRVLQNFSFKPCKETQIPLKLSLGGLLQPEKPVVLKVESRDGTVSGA

excreted unchanged in the urine [1] | time after dosing at which peak plasma levels occur ([2]; taken on an empty stomach) | effect of food on amount of drug absorbed ([2]; taken shortly after ingestion of food) | time after dosing at which peak plasma levels occur ([2]; taken with food) [h] | SMILES | metabolism in human liver microsomes (CYP3A4)
less than 1 % of an oral dose | – | – | – | O=c1n(CCCN2CCN(c3cccc(Cl)c3)CC2)nc2ccccn12 [trazodone, 2-{3-[4-(3-chlorophenyl)piperazin-1-yl]propyl}[1,2,4]triazolo[4,3-a]pyridin-3(2H)-one] | metabolized, via oxidative cleavage, to an active metabolite, m-chlorophenvlpipera.zine (mCPP) by CYP3A4
– | approximately one | increase | ~2 | O=c1n(CCCN2CCN(c3cccc(Cl)c3)CC2)nc2ccccn12 [trazodone hydrochloride] | –
